# Data reported in patent publication US20030026831A1, “Anionic liposomes for delivery of bioactive agents” (priority 2001, published 2003).
# Like-named read-outs stand apart in the source and are kept apart here.
# What was measured:
# [1] = tested on: hippocampal neurons; assay: Endocytosis assays: agents acting on AL-Cy3ON internalization; assay type: cell-based, rat; details: 10 minutes pretreatment (0.45 M sucrose, 1 μM FK506, 500 nM RAP, 100 μg/ml heparin or protamine sulfate, 5 μg/ml nocodazole, 10 μg/ml cytochalasin D, 100 nM wortmannin), then AL-Cy3ONs 30 minutes at 37° C.
# Experimental: Endocytosis Assays. The following agents were used to manipulate specific steps of the endocytic cycle: 0.45 M hyperosmolar sucrose (ICN biochemicals), 1 μM FK-506 (Calbiochem), and 100 nM wortmannin, 5 μg/ml nocodazole, 10 μg/ml cytochalasin D, 100 μg/ml heparin and 100 μg/ml protamine sulfate, (all from Sigma-Aldrich). Receptor-associated protein (RAP) was a generous gift from Dr. Guojun Bu (Washington University, St. Louis, Mo.) and was used at a concentration of 500 nM (Bu et al., 1994). Cells were treated with the drugs or RAP for 10 minutes prior to incubation with AL-Cy3ONs for 30 minutes at 37° C. and fixed for imaging.
# (§1) Confocal Microscopy and Image Analysis. Imaging was performed on a Leica TCS 4D confocal microscope (Deerfield, Ill.) equipped with a Mercury/Xenon lamp and argon/krypton laser. Cells were excited using the 488 nm laser line to detect Oregon Green 488-Transferrin and Alexa488-Dextran, and the emitted fluorescence was collected using a 515 long-pass filter. The 568 nm laser line was used to excite Cy3 and N—Rh-DOPE (LP590 emission). Cells were imaged at a plane midway between the substrate-attached plasma membrane and the top of the cell, such that neuronal nuclei were clearly identifiable. In some cases, the entire volume of the cell was scanned in 0.5 μm increments. Optimal images were obtained by averaging 16 images in the line-scan mode at the same fixed gains for all experiments. All fluorescent images presented in figures were equally contrast enhanced using ADOBE PHOTOSHOP (Adobe, Mountain View, Calif.).
# [2] = tested on: hippocampal neurons; assay: Neuronal calcium (Fura-2) during perfusion of liposomes; assay type: cell-based, rat; details: continuous perfusion of N-Rh-DOPE labeled liposomes; 100 μM NMDA as positive stimulus
# Experimental: FIG. 4. […] (a) Neurons were treated with 100 μg/ml heparin prior to incubation with AL-Cy3ON. Scale bar: 5 μm. (b) Fura-2 ratios in hippocampal neurons were not altered during perfusion of anionic liposomes labeled with N—Rh-DOPE but increased in response to 100 μM NMDA. Data were from a representative field of 23 neurons from among 110 neurons imaged in 5 experiments. (c) Image taken at 24 min (*) indicated the uptake of N-Rh-DOPE within the same neurons in the field.
# Addition of activated a2-M (a2-M*) to cortical neurons caused a Ca^2+ influx that was both spatially and temporally discrete. […] To examine whether the endocytosis of anionic liposomes via LRP caused Ca^2+ influx into neurons, neuronal calcium currents were studied during a continuous perfusion of liposomes labeled with N—Rh-DOPE.
# Liposomes labeled with N—Rh-DOPE were prepared in a manner identical to that described in Example 1 for liposomes encapsulating Cy3ONs except that the lipid films contained 1-2.5 mole percent N—Rh-DOPE and the liposomes were prepared with buffer alone (i.e., without ONs).
# [3] = tested on: neurons; assay: Toxicity screening of commercial cationic lipids; details: 8 hours after incubation, compared to untreated controls
# [4] = tested on: hippocampal neurons; assay type: cell-based, rat; details: for Neuronal survival after glutamate: survival at 48 hours
# Experimental: Hippocampal Cell Culture. Primary cultures of hippocampal neurons were prepared from neonatal rat pups (p1 or p2) as previously described (Dubinsky, 1993). Neurons were plated at a density of 60,000 cells/cm^2 onto polylysine-coated plastic 12-well plates or 100 mm dishes (Becton Dickinson, Franklin Lakes, N.J.) in Neurobasal medium with B27 supplements (Life technologies, Rockville, Md.) and 0.5 mM glutamine. Fluorodeoxyuridine (15 μg/ml) was added to the cultures 24 hours after plating to inhibit glial growth. Under these culture conditions, the survival and growth of non-neuronal cells was minimized. Cells were maintained at 37° C. in 95% air/5% CO2 and were used between 6-8 days in vitro.
# Neuroprotection Experiments. […] The ratio of viable cells to the total number of neurons in the pre-selected fields was calculated for quantifying survival.
# [5] = tested on: hippocampal neurons; assay: Lipid exacerbation of sub-maximal glutamate toxicity
# Experimental: FIG. 9. […] Arrowhead: amount of anionic lipid present in liposomes corresponding to a 1 μM final concentration of ON. Arrow: amount of cationic lipid present in complexes corresponding to a +/−charge ratio of 1/2 and 1 μM final concentration of ON. 20, 40, and 100 μg DC-Chol/DOPE correspond to amounts present in complexes of +/−charge ratio 1.6/1, 3.2/1, and 8/1 (μmole lipid/μmole ON), respectively, for a 1 μM final ON concentration. Data expressed as Mean ±S.E.M., n≧9.
# Neurons were treated with amounts of cationic lipid required to complex 1 μM ONs in +/−charge ratios (μmole lipid/μmole ON) of 1/2, 1.6/1, 3.2/1 and 8/1 (6.25, 20, 40 and 100 μg DC-Chol, respectively).
# [6] = tested on: hippocampal neurons; assay: Colocalization with transferrin (early and recycling endosomes); assay type: cell-based, rat; details: delivered in anionic liposomes
# Experimental: (§2) Colocalization of Lipids and Oligonucleotides with Transferrin and Dextran. Intracellular fates of endocytosed liposomes and ONs were determined by comparing their intracellular distributions with that of Oregon Green 488-Transferrin (OG-Tf) and Alexa488-dextran (Molecular Probes, Eugene, Oreg.) used as markers for the recycling and lysosomal compartments, respectively. Neurons were incubated with AL-Cy3ONs and either 100 μg/ml OG-Tf, for 30 minutes, 1 hour or 3 hours; or with 1 mg/ml Alexa488-dextran for 3 hours. For the lipid transport experiments, neurons were incubated with liposomes labeled with N—Rh-DOPE and either OG-TF, for 30 minutes, 1 hour, or 3 hours; or with 1 mg/ml Alexa-dextran for 3 hours. In another set of experiments, neurons were incubated with AL-Cy3ONs for 30 minutes, rinsed and chased with 1 mg/ml Alexa 488 dextran for 3 hours. Cells were rinsed and fixed for imaging as described above.
# as §1
# (§3) All image analysis was performed using the METAMORPH Imaging System software (Universal Imaging, Downington, Pa.). The cell outlines for each set of double-labeled fields were traced out manually in the corresponding differential interference contrast image and then used to mask the fluorescence images. In each cell, the total fluorescence intensity was measured and the percent of Cy3 label or rhodamine label that colocalized with transferrin or dextran was calculated.
# [7] = tested on: hippocampal neurons; assay: Colocalization with dextran (late endosomes and lysosomes); assay type: cell-based, rat; details: 3 h; delivered in anionic liposomes
# Experimental: as §2
# as §1, with “Optimal images were obtained by averaging 16 images in the line-scan mode at the same fixed gains for all experiments. All fluorescent images presented in figures were equally contrast enhanced using ADOBE PHOTOSHOP (Adobe, Mountain View, Calif.).” left out
# as §3
# [8] = Lipid/ON (+/−) charge ratio 1/1
# [9] = Lipid/ON (+/−) charge ratio 2/1
# [10] = 20 μM each, added 1-2 minutes before 50 μM glutamate
molecule,measurement,setting,value
COC(=O)Nc1nc2ccc(C(=O)c3cccs3)cc2[nH]1 [nocodazole],Effect on binding/internalization of AL-Cy3ONs by neurons,[1],intracellular transport was inhibited
OC[C@H]1O[C@@](CO)(O[C@H]2O[C@H](CO)[C@@H](O)[C@H](O)[C@H]2O)[C@@H](O)[C@@H]1O [sucrose],Effect on binding/internalization of AL-Cy3ONs by neurons,[1],completely prevented internalization
CN[C@H](CC(=O)O)C(=O)O [NMDA],Calcium response (Fura-2 ratios) in hippocampal neurons,[2],increased
"CCCCCCCC/C=C\CCCCCCCC(=O)OCC(C[N+](C)(C)C)OC(=O)CCCCCCC/C=C\CCCCCCCC (stereo not shown) [DOTAP, 1,2-dioleoyl-3-trimethylammonium-propane]",% Neuronal survival,[3]; [8],28.2%
same,% Neuronal survival,[3]; [9],˜0%
C[C@]12N[C@H](Cc3ccccc31)c1ccccc12 [MK-801],Neuronal survival after glutamate,[4]; [10],significantly increased the survival of glutamate-treated neurons
"CCCCCCCC/C=C\CCCCCCCC(=O)OC[C@H](COP(=O)(O)OC[C@H](N)C(=O)O)OC(=O)CCCCCCC/C=C\CCCCCCCC [DOPS, 1,2-dioleoyl-sn-glycero-3-[phospho-L-serine]]",Neuronal survival,"[5]; 40 μg lipid (liposomes without AsONs), then 10 μM glutamate for 48 hours",48%
same,Effect of increasing amounts of lipid on glutamate toxicity,"[5]; liposomes without AsONs, then 10 μM glutamate for 48 hours",dose-dependently exacerbate toxicity
p53 phosphodiester AsONs: free phosphodiester 5′-CTGTGAATCCTCCATGAC-3′ (SEQ ID NO:2) (unmodified DNA; listed as Rattus norvegicus),Neuroprotection by free ONs,"[4]; without encapsulation in anionic liposomes, 50 μM glutamate, 48 hours",not neuroprotective
"CC(C)CCC[C@@H](C)[C@H]1CC[C@H]2[C@@H]3CC=C4C[C@@H](OC(=O)NCCN(C)C)CC[C@]4(C)[C@H]3CC[C@]12C [DC-Chol, 3β-[N-(N′,N′-dimethylaminoethane)-carbamol] cholesterol]",Neuronal survival,"[5]; 6.25 μg DC-Chol (+/− charge ratio 1/2 for 1 μM ON), 48 hours post-glutamate",survived 48 hours post-glutamate
same,Neuronal survival,"[5]; 20, 40 and 100 μg DC-Chol (charge ratios 1.6/1, 3.2/1, 8/1), 48 hours post-glutamate",caused extensive neuronal loss
same,% Neuronal survival,[3]; [8],45.7%
same,% Neuronal survival,[3]; [9],17.3%
C=C1[C@@H](C)[C@H]2[C@H](Cc3ccccc3)NC(=O)[C@]23[C@H](OC(C)=O)/C=C/[C@@](C)(O)C(=O)[C@@H](C)C/C=C/[C@H]3[C@@H]1O [cytochalasin D],Effect on binding/internalization of AL-Cy3ONs by neurons,[1],prevented both binding and internalization of the liposomes
"Cc1ccc(C(=O)Cn2c3c(sc2=N)CCCC3)cc1 [PFT-α, Pifithrin-α]",Concentrations toxic in hippocampal cultures,[4],20 to 100 µM
same,Neuronal survival after glutamate,"[4]; 10 μM, added 3 hours before 50 μM glutamate",significantly increased the survival of glutamate-treated neurons
same,Concentrations not protective,[4]; 50 μM glutamate,0.5 to 7 µM
protamine sulfate,Effect on binding/internalization of AL-Cy3ONs by neurons,[1],Neither heparin nor protamine altered the level of Cy3 fluorescence within neurons
N#Cc1cc2[nH]c(=O)c(=O)[nH]c2cc1[N+](=O)[O-] [CNQX],Neuronal survival after glutamate,[4]; [10],significantly increased the survival of glutamate-treated neurons
"RAP: 39 kDa LRP receptor-associated protein, inhibitor of all known ligand interactions of LRP",Effect on binding/internalization of AL-Cy3ONs by neurons,[1],both binding and internalization of anionic liposomes was inhibited
heparin,Effect on binding/internalization of AL-Cy3ONs by neurons,[1],Neither heparin nor protamine altered the level of Cy3 fluorescence within neurons
Lissamine Rhodamine DOPE [N-Rh-DOPE],Percent colocalization with Transferrin,[6]; 30 min,45.56 ± 2.2%
same,Percent colocalization with Transferrin,[6]; 1 h,51.88 ± 2.7%
same,Percent colocalization with Dextran,[7],22.18 ± 1.5%
N[C@@H](CCC(=O)O)C(=O)O [glutamate],Neuronal survival,[5]; 48 hour exposure to 10 μM glutamate alone,71%
